Test results as given in patent US20260327240A1, “1,4-CINEOLE DERIVATIVE AND INTERMEDIATE THEREOF, HERBICIDE CONTAINING SAID DERIVATIVE AS ACTIVE INGREDIENT, METHOD FOR USING HERBICIDE, AND METHOD FOR PREPARING AGROCHEMICAL COMPOSITION” (HOKKO CHEMICAL INDUSTRY CO., LTD., priority 2023, published 2026).

Columns and labels:
Assay type in all cases: in vivo
[1] = tested on: Echinochloa crus-galli var. formosensis; assay: Comparative Example: herbicidal effect test by application during growth period of paddy rice (three-leaf stage); conditions: 504 h, 7.5 g per 10 ares, 21 days after application, triplicate, read-out: Weed inhibition rate (%)
Protocol: As an example, the herbicidal effect on Echinochloa crus-galli var. formosensis at the three-leaf stage was confirmed by the following method, and the results are specifically shown in Table 7 as a comparative example.
(§1) Herbicidal Effect Test by Application During Growth Period of Paddy Rice
Wagner pots with an area of […] were filled with paddy soil, followed by addition of water and incorporation of chemical fertilizer (N:P:K=16:16:16), after which puddling was performed. After that, 30 seeds of Echinochloa crus-galli var. formosensis were sown at a depth of 0 cm to 1 cm. Immediately after sowing, the pots were flooded and a water depth of approximately 3 cm was maintained. Subsequent management was conducted in a glass greenhouse. When Echinochloa crus-galli var. formosensis reached the three-leaf stage, an emulsifiable concentrate prepared according to Formulation Example 5 using the compound shown below was diluted with water, and a specified amount of the diluted solution was applied by dropper. The amount of the active ingredient to be applied was equivalent to 7.5 g per 10 ares. The test was conducted in triplicate for each chemical concentration group, and the weed inhibition rate (%) was determined 21 days after chemical application using the following formula (Math. 1).

[2] = tested on: Digitaria ciliaris; assay: Test Example 3: herbicidal effect test by soil application in upland field; conditions: 1 day after sowing, 120 g per 10 ares, 14 days after application
Protocol: (§2) Herbicidal Effect Test by Soil Application in Upland Field
(§3) Pots with an area of 36 cm^2 were filled with upland soil (alluvial loam), twenty seeds each of weeds of Digitaria ciliaris, Echinochloa crus-galli, Chenopodium album, and Amaranthus viridis were uniformly mixed with the top 1 cm layer of soil and the surface was lightly pressed down. One day after sowing, an emulsifiable concentrate prepared according to Formulation Example 5 using the compound shown below was diluted with water, and the diluted solution was sprayed onto the soil surface at a rate of 100 liters per 10 ares. The amount of the active ingredient to be applied was equivalent to 120 g per 10 ares. Fourteen days after chemical application, the herbicidal effect was evaluated according to the same criteria as in Test Example 1.

[3] = tested on: Amaranthus viridis; assay: as above; conditions: 1 day after sowing, 120 g per 10 ares, 14 days after application
Protocol: as §2, §3

[4] = tested on: Echinochloa crus-galli; assay: as above; conditions: 1 day after sowing, 120 g per 10 ares, 14 days after application
Protocol: as §2, §3

[5] = tested on: Chenopodium album; assay: as above; conditions: 1 day after sowing, 120 g per 10 ares, 14 days after application
Protocol: as §2, §3

[6] = tested on: Scirpus juncoides; assay: Test Example 1: herbicidal effect test by soil application in paddy rice; conditions: 120 g per 10 ares, 14 days after application
Protocol: (§4) Herbicidal Effect Test by Soil Application in Paddy Rice
(§5) Wagner pots with an area of […] were filled with paddy soil, followed by addition of water and incorporation of chemical fertilizer (N:P:K=16:16:16), after which puddling was performed. After that, seeds of Echinochloa crus-galli var. formosensis, broad-leaved weeds (Lindernia pyxidaria and Monochoria vaginalis), and Scirpus juncoides were sown at a depth of 0 cm to 1 cm, 30 seeds each. Immediately after sowing, the pots were flooded and a water depth of approximately 3 cm was maintained. Subsequent management was conducted in a glass greenhouse. Immediately thereafter, an emulsifiable concentrate prepared according to Formulation Example 5 using the compound shown below was diluted with water, and a specified amount of the diluted solution was applied by dropper. The amount of the active ingredient to be applied was equivalent to 120 g per 10 ares.
(§6) The present test was conducted in duplicate for each chemical concentration group, and the weed inhibition rate (%) was determined 14 days after chemical application using the following formula (Math. 1).

[7] = tested on: Echinochloa crus-galli var. formosensis; assay: as above; conditions: 120 g per 10 ares, 14 days after application
Protocol: as §4, §5, §6

[8] = tested on: Scirpus juncoides; assay: Test Example 5: herbicidal effect test by soil application in paddy rice; conditions: 7.5 g per 10 ares, 14 days after application
Protocol: as §4
as §5, with “(Lindemia pyxidaria,” for “(Lindernia pyxidaria”, “7.5” for “120”
(§7) The present test was conducted in duplicate for each chemical concentration group, and the herbicidal effect was evaluated 14 days after chemical application using the same criteria as in Test Example 1.

[9] = tested on: Echinochloa crus-galli var. formosensis; assay: as above; conditions: 7.5 g per 10 ares, 14 days after application
Protocol: as §4
as §5, with “(Lindemia pyxidaria,” for “(Lindernia pyxidaria”, “7.5” for “120”
as §7

[10] = tested on: Echinochloa crus-galli; assay: Test Example 8: herbicidal effect test by stem and leaf treatment in upland field; conditions: 7 days after sowing, 7.5 g per 10 ares, 14 days after application
Protocol: (§8) Herbicidal Effect Test by Stem and Leaf Treatment in Upland Field
as §3, with “Seven days” for “One day”, “7.5” for “120”

[11] = tested on: Echinochloa crus-galli var. formosensis; assay: Test Example 2: herbicidal effect test by application during growth period of paddy rice; conditions: 7 days after sowing, 120 g per 10 ares, 14 days after application
Protocol: as §1
as §5, with “(Lindemia pyxidaria,” for “(Lindernia pyxidaria”, “Seven days after sowing,” for “Immediately thereafter,”, “ares. The test was conducted in duplicate for each chemical concentration group, and the herbicidal effect was evaluated 14 days after chemical application using the same criteria as in Test Example 1.” for “ares.”

[12] = tested on: Amaranthus viridis; assay: Test Example 7: herbicidal effect test by soil application in upland field; conditions: 1 day after sowing, 7.5 g per 10 ares, 14 days after application
Protocol: as §2
as §3, with “7.5” for “120”

[13] = tested on: Echinochloa crus-galli; assay: as above; conditions: 1 day after sowing, 7.5 g per 10 ares, 14 days after application
Protocol: as §2
as §3, with “7.5” for “120”

[14] = tested on: Digitaria ciliaris; assay: Test Example 4: herbicidal effect test by stem and leaf treatment in upland field; conditions: 7 days after sowing, 120 g per 10 ares, 14 days after application
Protocol: as §8
as §3, with “Seven days” for “One day”

[15] = tested on: Echinochloa crus-galli; assay: as above; conditions: 7 days after sowing, 120 g per 10 ares, 14 days after application
Protocol: as §8
as §3, with “Seven days” for “One day”

| SMILES | inhibition at 75 g/ha [1] | weed inhibition rate [2] | weed inhibition rate [3] | weed inhibition rate [4] | weed inhibition rate [5] | weed inhibition rate [6] | weed inhibition rate [7] | weed inhibition rate [8] | weed inhibition rate [9] | weed inhibition rate [10] | weed inhibition rate [11] | weed inhibition rate [12] | weed inhibition rate [13] | weed inhibition rate [14] | weed inhibition rate [15] |
| --- | --- | --- | --- | --- | --- | --- | --- | --- | --- | --- | --- | --- | --- | --- | --- |
| C=C1C(OCc2ccccc2C)C2(C)CCC1(C(C)C)O2 (stereo not drawn) | 20% | – | – | – | – | – | – | – | – | – | – | – | – | – | – |
| CC(C)[C@]12C[C@@H](OCc3ccccc3C(F)(F)F)[C@](C)(CC1=O)O2 [2-29, (1R,4S5R)-1-isopropyl-4-methyl-5-((2-(trifluoromethyl)benzyl)oxy)-7-oxabicyclo[2.2.1]heptan-2-one] | – | ≥ 80% | ≥ 80% | ≥ 80% | ≥ 80% | ≥ 80% | ≥ 80% | ≥ 80% | ≥ 80% | ≥ 80% | ≥ 80% | ≥ 80% | ≥ 80% | ≥ 80% | ≥ 80% |
